Values of other authors in patent US7316771B2, “Medium for analytic and preparative electrophoresis” (Becton, Dickinson and Company, priority 2000, dated 2008).
“And” between values parts separate entries of the source, which are not always exact repeats. Identical values can stand only once. Like-named read-outs stand apart in the source and are kept apart here.

Details: for pKa (Base): substance used as base in the medium; for pKa (Acid): substance used as acid in the medium

Row | Structure (SMILES) | pKa (Base) | pKa (Acid) | pKa (Acid) (listed as 2-hydroxy pyridine)
1 | CCC(N)C(=O)O (centres unmarked) [2-Amino Butyric Acid] | 2.3 and 2.2 |  | 
2 | Oc1ccccn1 [2-Hydroxy-Pyridine] |  | 11.8 | 11.6
3 | Oc1ccncc1 [4-Hydroxy-Pyridine] |  | 11.2 | 
4 | C[N+](C)(C)CC(=O)O [Betaine] | 1.8 |  | 
5 | CN(CC(=O)O)C(=N)N [Creatine] | 2.7 |  | 
6 | CN1CC(=O)NC1=N [Creatinine] | 4.8 |  | 
7 | NCC(=O)NCC(=O)O [Glycyl Glycine] | 3.1 |  | 
8 | CC(C)C(=O)O [Isobutyric Acid] |  | 4.5 | 
9 | NC(=O)c1cccnc1 [Nicotinic Acid Amide] | 3.1 |  | 
10 | O=C(O)c1ccccn1 [Picolinic Acid] |  | 5.5 | 
